Laboratory results: ChEMBL document CHEMBL1649524, “Resistance selection studies comparing the activity of razupenem (PTZ601) to vancomycin and linezolid against eight methicillin-resistant and two methicillin-susceptible Staphylococcus aureus strains” (2009)

How the values were obtained:
Staphylococcus aureus [1] = assay: Antimicrobial activity against vancomycin-intermediate Staphylococcus aureus 555 by macrodilution method; assay type: functional
Staphylococcus aureus [2] = assay: Antimicrobial activity against vancomycin-resistant Staphylococcus aureus 510 by macrodilution method; assay type: functional
Staphylococcus aureus [3] = assay: Antimicrobial activity against vancomycin-resistant Staphylococcus aureus 509 by macrodilution method; assay type: functional
Staphylococcus aureus [4] = assay: Antimicrobial activity against heterogeneous vancomycin-intermediate Staphylococcus aureus 168 after 50 passages by macrodilution method; assay type: functional
Staphylococcus aureus [5] = assay: Antimicrobial activity against vancomycin-intermediate Staphylococcus aureus 1287 after 50 passages by macrodilution method; assay type: functional
Staphylococcus aureus [6] = assay: Antimicrobial activity against methicillin-resistant Staphylococcus aureus 525 after 50 passages by macrodilution method; assay type: functional
Staphylococcus aureus [7] = assay: Antimicrobial activity against methicillin-susceptible Staphylococcus aureus 540 after 50 passages by macrodilution method
Staphylococcus aureus [8] = assay: Antimicrobial activity against methicillin-susceptible Staphylococcus aureus 543 after 50 passages by macrodilution method; assay type: functional
Staphylococcus aureus [9] = assay: Antimicrobial activity against vancomycin-resistant Staphylococcus aureus 510 after 50 passages by macrodilution method; assay type: functional
Staphylococcus aureus [10] = assay: Antimicrobial activity against vancomycin-resistant Staphylococcus aureus 509 measured after 10 antibiotic-free subculturing by macrodilution method; assay type: functional
Staphylococcus aureus [11] = assay: Antimicrobial activity against vancomycin-intermediate Staphylococcus aureus 555 measured on day 5 by macrodilution method; assay type: functional; details: Staphylococcus aureus, 555, 120 h
Staphylococcus aureus [12] = assay: Antimicrobial activity against vancomycin-intermediate Staphylococcus aureus 555 measured on day 10 by macrodilution method; assay type: functional; details: Staphylococcus aureus, 555, 240 h
Staphylococcus aureus [13] = assay: Antimicrobial activity against vancomycin-intermediate Staphylococcus aureus 555 measured on day 15 by macrodilution method; assay type: functional; details: Staphylococcus aureus, 555, 360 h
Staphylococcus aureus [14] = assay: Antimicrobial activity against vancomycin-intermediate Staphylococcus aureus 1287 measured on day 15 by macrodilution method; assay type: functional; details: Staphylococcus aureus, 1287, 360 h
Staphylococcus aureus [15] = assay: Antimicrobial activity against methicillin-susceptible Staphylococcus aureus 540 measured on day 15 by macrodilution method; assay type: functional; details: Staphylococcus aureus, 540, 360 h
Staphylococcus aureus [16] = assay: Antimicrobial activity against methicillin-susceptible Staphylococcus aureus 543 measured on day 15 by macrodilution method; assay type: functional; details: Staphylococcus aureus, 543, 360 h
Staphylococcus aureus [17] = assay: Antimicrobial activity against heterogeneous vancomycin-intermediate Staphylococcus aureus 168 measured on day 20 by macrodilution method; assay type: functional; details: Staphylococcus aureus, 168, 480 h
Staphylococcus aureus [18] = assay: Antimicrobial activity against vancomycin-intermediate Staphylococcus aureus 555 measured on day 20 by macrodilution method; assay type: functional; details: Staphylococcus aureus, 555, 480 h
Staphylococcus aureus [19] = assay: Antimicrobial activity against methicillin-resistant Staphylococcus aureus 525 measured on day 20 by macrodilution method; assay type: functional; details: Staphylococcus aureus, 525, 480 h
Staphylococcus aureus [20] = assay: Antimicrobial activity against methicillin-susceptible Staphylococcus aureus 540 measured on day 20 by macrodilution method; assay type: functional; details: Staphylococcus aureus, 540, 480 h
Staphylococcus aureus [21] = assay: Antimicrobial activity against methicillin-susceptible Staphylococcus aureus 543 measured on day 20 by macrodilution method; assay type: functional; details: Staphylococcus aureus, 543, 480 h
Staphylococcus aureus [22] = assay: Antimicrobial activity against heterogeneous vancomycin-intermediate Staphylococcus aureus 168 measured on day 25 by macrodilution method; assay type: functional; details: Staphylococcus aureus, 168, 600 h
Staphylococcus aureus [23] = assay: Antimicrobial activity against vancomycin-intermediate Staphylococcus aureus 555 measured on day 25 by macrodilution method; assay type: functional; details: Staphylococcus aureus, 555, 600 h
Staphylococcus aureus [24] = assay: Antimicrobial activity against methicillin-resistant Staphylococcus aureus 547 measured on day 25 by macrodilution method; assay type: functional; details: Staphylococcus aureus, 547, 600 h
Staphylococcus aureus [25] = assay: Antimicrobial activity against methicillin-susceptible Staphylococcus aureus 540 measured on day 25 by macrodilution method; assay type: functional; details: Staphylococcus aureus, 540, 600 h
Staphylococcus aureus [26] = assay: Antimicrobial activity against methicillin-susceptible Staphylococcus aureus 543 measured on day 25 by macrodilution method; assay type: functional; details: Staphylococcus aureus, 543, 600 h
Staphylococcus aureus [27] = assay: Antimicrobial activity against heterogeneous vancomycin-intermediate Staphylococcus aureus 873 measured on day 30 by macrodilution method; assay type: functional
Staphylococcus aureus [28] = assay: Antimicrobial activity against vancomycin-intermediate Staphylococcus aureus 555 measured on day 30 by macrodilution method; assay type: functional
Staphylococcus aureus [29] = assay: Antimicrobial activity against methicillin-resistant Staphylococcus aureus 525 measured on day 30 by macrodilution method; assay type: functional
Staphylococcus aureus [30] = assay: Antimicrobial activity against methicillin-resistant Staphylococcus aureus 547 measured on day 30 by macrodilution method; assay type: functional
Staphylococcus aureus [31] = assay: Antimicrobial activity against methicillin-susceptible Staphylococcus aureus 540 measured on day 30 by macrodilution method; assay type: functional
Staphylococcus aureus [32] = assay: Antimicrobial activity against methicillin-susceptible Staphylococcus aureus 543 measured on day 30 by macrodilution method; assay type: functional
Staphylococcus aureus [33] = assay: Antimicrobial activity against heterogeneous vancomycin-intermediate Staphylococcus aureus 168 measured on day 35 by macrodilution method; assay type: functional
Staphylococcus aureus [34] = assay: Antimicrobial activity against vancomycin-intermediate Staphylococcus aureus 555 measured on day 35 by macrodilution method; assay type: functional
Staphylococcus aureus [35] = assay: Antimicrobial activity against methicillin-resistant Staphylococcus aureus 525 measured on day 35 by macrodilution method; assay type: functional
Staphylococcus aureus [36] = assay: Antimicrobial activity against methicillin-resistant Staphylococcus aureus 547 measured on day 35 by macrodilution method; assay type: functional
Staphylococcus aureus [37] = assay: Antimicrobial activity against methicillin-susceptible Staphylococcus aureus 540 measured on day 35 by macrodilution method; assay type: functional
Staphylococcus aureus [38] = assay: Antimicrobial activity against methicillin-susceptible Staphylococcus aureus 543 measured on day 35 by macrodilution method; assay type: functional
Staphylococcus aureus [39] = assay: Antimicrobial activity against heterogeneous vancomycin-intermediate Staphylococcus aureus 168 measured on day 40 by macrodilution method; assay type: functional
Staphylococcus aureus [40] = assay: Antimicrobial activity against vancomycin-intermediate Staphylococcus aureus 555 measured on day 40 by macrodilution method; assay type: functional
Staphylococcus aureus [41] = assay: Antimicrobial activity against methicillin-resistant Staphylococcus aureus 525 measured on day 40 by macrodilution method; assay type: functional
Staphylococcus aureus [42] = assay: Antimicrobial activity against methicillin-susceptible Staphylococcus aureus 540 measured on day 40 by macrodilution method; assay type: functional
Staphylococcus aureus [43] = assay: Antimicrobial activity against heterogeneous vancomycin-intermediate Staphylococcus aureus 168 measured on day 45 by macrodilution method; assay type: functional
Staphylococcus aureus [44] = assay: Antimicrobial activity against vancomycin-intermediate Staphylococcus aureus 555 measured on day 45 by macrodilution method; assay type: functional
Staphylococcus aureus [45] = assay: Antimicrobial activity against vancomycin-intermediate Staphylococcus aureus 1287 measured on day 45 by macrodilution method; assay type: functional
Staphylococcus aureus [46] = assay: Antimicrobial activity against methicillin-resistant Staphylococcus aureus 525 measured on day 45 by macrodilution method; assay type: functional
Staphylococcus aureus [47] = assay: Antimicrobial activity against methicillin-susceptible Staphylococcus aureus 540 measured on day 45 by macrodilution method; assay type: functional
Staphylococcus aureus [48] = assay: Antimicrobial activity against methicillin-susceptible Staphylococcus aureus 543 measured on day 45 by macrodilution method; assay type: functional
Staphylococcus aureus [49] = assay: Antimicrobial activity against heterogeneous vancomycin-intermediate Staphylococcus aureus 168 measured on day 50 by macrodilution method; assay type: functional
Staphylococcus aureus [50] = assay: Antimicrobial activity against vancomycin-intermediate Staphylococcus aureus 555 measured on day 50 by macrodilution method; assay type: functional
Staphylococcus aureus [51] = assay: Antimicrobial activity against vancomycin-intermediate Staphylococcus aureus 1287 measured on day 50 by macrodilution method; assay type: functional
Staphylococcus aureus [52] = assay: Antimicrobial activity against methicillin-resistant Staphylococcus aureus 525 measured on day 50 by macrodilution method; assay type: functional
Staphylococcus aureus [53] = assay: Antimicrobial activity against methicillin-resistant Staphylococcus aureus 547 measured on day 50 by macrodilution method; assay type: functional
Staphylococcus aureus [54] = assay: Antimicrobial activity against methicillin-susceptible Staphylococcus aureus 540 measured on day 50 by macrodilution method; assay type: functional
Staphylococcus aureus [55] = assay: Antimicrobial activity against methicillin-susceptible Staphylococcus aureus 543 measured on day 50 by macrodilution method; assay type: functional
Staphylococcus aureus [56] = assay: microbe, parasite or virus in culture; details: 555
Description: Antimicrobial activity against vancomycin-intermediate Staphylococcus aureus 555 after 50 passages by macrodilution method

Staphylococcus aureus [57] = assay: microbe, parasite or virus in culture; details: 547
Description: Antimicrobial activity against methicillin-resistant Staphylococcus aureus 547 after 50 passages by macrodilution method

Measured: MIC

CN[C@H](CC(C)C)C(=O)N[C@H]1C(=O)N[C@@H](CC(N)=O)C(=O)N[C@H]2C(=O)N[C@H]3C(=O)N[C@H](C(=O)N[C@H](C(=O)O)c4cc(O)cc(O)c4-c4cc3ccc4O)[C@H](O)c3ccc(c(Cl)c3)Oc3cc2cc(c3O[C@@H]2O[C@H](CO)[C@@H](O)[C@H](O)[C@H]2O[C@H]2C[C@](C)(N)[C@H](O)[C@H](C)O2)Oc2ccc(cc2Cl)[C@H]1O [VANCOMYCIN]
64 µg/mL: Staphylococcus aureus [2]
8 µg/mL: Staphylococcus aureus [1] | Staphylococcus aureus [4] | Staphylococcus aureus [5] | Staphylococcus aureus [6] | Staphylococcus aureus [7] | Staphylococcus aureus [8] | Staphylococcus aureus [11] | Staphylococcus aureus [12] | Staphylococcus aureus [13] | Staphylococcus aureus [14] | Staphylococcus aureus [15] | Staphylococcus aureus [16] | Staphylococcus aureus [17] | Staphylococcus aureus [18] | Staphylococcus aureus [19] | Staphylococcus aureus [20] | Staphylococcus aureus [21] | Staphylococcus aureus [22] | Staphylococcus aureus [23] | Staphylococcus aureus [24] | Staphylococcus aureus [25] | Staphylococcus aureus [26] | Staphylococcus aureus [27] | Staphylococcus aureus [31] | Staphylococcus aureus [32] | Staphylococcus aureus [33] | Staphylococcus aureus [35] | Staphylococcus aureus [36] | Staphylococcus aureus [37] | Staphylococcus aureus [38] | Staphylococcus aureus [39] | Staphylococcus aureus [43] | Staphylococcus aureus [45] | Staphylococcus aureus [46] | Staphylococcus aureus [48] | Staphylococcus aureus [49] | Staphylococcus aureus [50] | Staphylococcus aureus [51] | Staphylococcus aureus [52] | Staphylococcus aureus [53] | Staphylococcus aureus [54] | Staphylococcus aureus [55] | Staphylococcus aureus [56] | Staphylococcus aureus [57]
> 64 µg/mL: Staphylococcus aureus [3] | Staphylococcus aureus [10]
16 µg/mL: Staphylococcus aureus [28] | Staphylococcus aureus [30] | Staphylococcus aureus [41] | Staphylococcus aureus [47]
0.06 µg/mL: Staphylococcus aureus [29]
≥ 64 µg/mL: Staphylococcus aureus [9]
32 µg/mL: Staphylococcus aureus [34] | Staphylococcus aureus [40] | Staphylococcus aureus [42] | Staphylococcus aureus [44]
